Assay results: patent publication US20060166287A1, “Method for Identifying compounds for suppressing metastasizing tumor cells” (priority 2002, published 2006)

Tested on: c-Met
Experiment: c-Met activation (ERK phosphorylation) by pro-HGF versus active HGF in HT29 and BSp73Asv4-7Δ15 cell lines, Western blot
Type: cell-based
Conditions: HT29 and BSp73Asv4-7Δ15 cells with competent CD44 isoforms, FIG. 5
Source text: HGF/SF is secreted as single-stranded precursor which is processed by serum proteinases (Shimomura, 1995) or plasminogen activators of the urokinase type (Naldini, 1995) into an active a form and β subunits. Investigations into whether CD44 is involved in the activation of HGF was employed HGF precursor which was purchased and isolated from Drosophila Schneider cells (S2) for the activation of c-Met (FIG. 5).
(B) Western blot analyses to investigate the cleavage of the precursors pro-HGF (HGFp; enriched from Drosophila Schneider cells (S2)) into the active form HGFa by means of CD44 in the HT29 and BSp73Asv4-7Δ15 cell lines. The pro form is unable, despite the presence of competent CD44 isoforms, to mediate ERK phosphorylation by c-Met activation. In contrast thereto, processed, active HGF is capable, with the assistance of competent CD44 isoforms, of c-Met activation.
(C) Western blot analysis to investigate the cleavage of the precursor pro-HGF (HGFp; commercial) into the active form HGFa by means of CD44 in the HT29 and BSp73Asv4-7Δ15 cell lines. The pro form is unable, despite the presence of competent CD44-isoforms, to mediate ERK phosphorylation by c-Met activation. In contrast thereto, processed, active HGF is capable, with the assistance of competent CD44 isoforms, of c-Met activation.

Substance: pro-HGF: single-stranded HGF/SF precursor, purchased or isolated from Drosophila Schneider cells (S2)
- Ability to activate c-Met / mediate ERK phosphorylation: unable
- Ability to activate c-Met / mediate ERK phosphorylation (listed as pro form of HGF): unable to activate c-Met
